ChEMBL document CHEMBL1201862, “PubChem BioAssay data set” (2004)
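96-well plates; 48 h exposure; 5 concentrations. Endpoints by linear interpolation between flanking doses. Not reached: highest tested concentration assigned. GI50 marks 50% less growth.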 The source made the active and inactive calls. Rule as the data show it: active = GI50 up to about 1.1 µM and inactive = higher.

Key:
Experiment in all cases: inhibition of tumour cell growth, NCI panel, 48 h
786-0 = system: 786-0
A498 = system: A498
A549 = system: A549
ACHN = system: ACHN
BT-549 = system: BT-549
CAKI-1 = system: CAKI-1
CCRF-CEM = system: CCRF-CEM
COLO 205 = system: COLO 205
DU-145 = system: DU-145
EKVX = system: EKVX
HCC 2998 = system: HCC 2998
HCT-116 = system: HCT-116
HCT-15 = system: HCT-15
HOP-62 = system: HOP-62
HOP-92 = system: HOP-92
HT-29 = system: HT-29
Hs-578T = system: Hs-578T
IGROV-1 = system: IGROV-1
K562 = system: K562
KM12 = system: KM12
LOX IMVI = system: LOX IMVI
M14 = system: M14
MCF7 = system: MCF7
MDA-MB-231 = system: MDA-MB-231
MDA-MB-435 = system: MDA-MB-435
MDA-N = system: MDA-N
MOLT-4 = system: MOLT-4
NCI-H23 = system: NCI-H23
NCI-H460 = system: NCI-H460
OVCAR-3 = system: OVCAR-3
OVCAR-4 = system: OVCAR-4
OVCAR-5 = system: OVCAR-5
OVCAR-8 = system: OVCAR-8
PC-3 = system: PC-3
RPMI-8226 = system: RPMI-8226
RXF 393 = system: RXF 393
SF-268 = system: SF-268
SF-295 = system: SF-295
SK-MEL-28 = system: SK-MEL-28
SK-MEL-2 = system: SK-MEL-2
SK-MEL-5 = system: SK-MEL-5
SK-OV-3 = system: SK-OV-3
SN12C = system: SN12C
SNB-19 = system: SNB-19
SNB-75 = system: SNB-75
SR = system: SR
SW-620 = system: SW-620
T47D = system: T47D
TK-10 = system: TK-10
U-251 = system: U-251
UACC-257 = system: UACC-257
UACC-62 = system: UACC-62
UO-31 = system: UO-31
HL-60 = system: HL-60
Malme-3M = system: Malme-3M
NCI-H226 = system: NCI-H226
NCI-H522 = system: NCI-H522
NCI/ADR-RES = system: NCI/ADR-RES
SF-539 = system: SF-539

Measured: GI50

NC(CC1=CCC=CC1)C(=O)O (stereo not drawn)
inactive: 786-0 > 100 µM | A498 > 100 µM | A549 74.5 µM | ACHN > 100 µM | BT-549 > 100 µM | CAKI-1 > 100 µM | CCRF-CEM 62.8 µM | COLO 205 38 µM | DU-145 > 100 µM | EKVX > 100 µM | HCC 2998 > 100 µM | HCT-116 55.1 µM | HOP-62 > 100 µM | HOP-92 > 100 µM | HT-29 61.9 µM | Hs-578T 50.6 µM | IGROV-1 67.8 µM | K562 28.9 µM | KM12 68.2 µM | LOX IMVI 91.8 µM | M14 80.2 µM | MCF7 47.4 µM | MDA-MB-231 > 100 µM | MDA-MB-435 71.8 µM | MDA-N 59.2 µM | MOLT-4 62.2 µM | NCI-H23 > 100 µM | NCI-H460 59.3 µM | OVCAR-3 51.5 µM | OVCAR-4 > 100 µM | OVCAR-5 > 100 µM | OVCAR-8 67.1 µM | PC-3 45.7 µM | RPMI-8226 9.2 µM | RXF 393 70.5 µM | SF-268 > 100 µM | SF-295 60.3 µM | SK-MEL-28 80.5 µM | SK-MEL-2 53.7 µM | SK-MEL-5 > 100 µM | SK-OV-3 98.2 µM | SN12C > 100 µM | SNB-19 > 100 µM | SNB-75 99.5 µM | SR > 10 µM | SW-620 > 100 µM | T47D > 100 µM | TK-10 > 100 µM | U-251 64.4 µM | UACC-257 > 100 µM | UACC-62 > 100 µM | UO-31 > 100 µM
57.9 µM: HCT-15

OC(c1ccccc1)(c1cccnc1)C(O)(c1ccccc1)c1cccnc1 (stereo not drawn)
> 100 µM: HCT-15
inactive: 786-0 > 100 µM | A549 > 100 µM | ACHN > 100 µM | BT-549 > 100 µM | CAKI-1 > 100 µM | CCRF-CEM > 100 µM | COLO 205 > 100 µM | DU-145 > 100 µM | EKVX > 100 µM | HCT-116 > 100 µM | HL-60 > 100 µM | HOP-92 > 100 µM | HT-29 > 100 µM | Hs-578T > 100 µM | IGROV-1 > 100 µM | K562 > 10 µM | KM12 > 100 µM | M14 > 100 µM | MCF7 > 100 µM | MDA-MB-231 > 100 µM | MDA-MB-435 > 100 µM | MDA-N > 100 µM | Malme-3M > 100 µM | NCI-H226 69.7 µM | NCI-H23 > 100 µM | NCI-H460 > 100 µM | NCI-H522 6.97 µM | NCI/ADR-RES > 100 µM | OVCAR-5 > 100 µM | OVCAR-8 > 100 µM | PC-3 > 100 µM | RPMI-8226 > 100 µM | RXF 393 > 100 µM | SF-268 > 100 µM | SF-295 > 100 µM | SF-539 > 100 µM | SK-MEL-2 > 100 µM | SK-MEL-5 > 100 µM | SK-OV-3 > 100 µM | SN12C > 100 µM | SNB-19 > 100 µM | SNB-75 > 100 µM | SW-620 > 100 µM | T47D > 100 µM | TK-10 > 100 µM | U-251 > 100 µM | UACC-257 > 100 µM | UACC-62 > 100 µM | UO-31 > 100 µM
